{"source": "patent US20050250822A1", "about": "“Substituted benzanilide compound and noxious organism controlling agent” (priority 2002, published 2005)", "key": {"[1]": {"tested_on": "Common cutworms (Spodoptera litura) with second instar larvae", "test": "Insecticidal test against common cutworm (leaf dip)", "format": "in vivo", "conditions": "foliar, 144 h, read-out: insecticidal rate (rate of dead insects)", "procedure": "Insecticidal Test Against Common Cutworm\n(§1) A 10% emulsifiable concentrate (depending on the compounds, 25% wettable powder was applied for the test) of the compound of the present invention was diluted with water containing a spreading agent to prepare a chemical solution with a concentration of 100 ppm. To the chemical solution was dipped leaves of Chinese olive for about 10 seconds, and after air-drying, they were placed in a laboratory dish, then, 10 Common cutworms (Spodoptera litura) with second instar larvae per the dish were released therein, and the dish was covered with a lid having holes and contained at a thermostat chamber at 25° C. A number of dead insect(s) after 6 days was counted and a rate of dead insects was calculated by the following calculation formula. Incidentally, the test was carried out with two districts. Rate of dead insects (%)=(Number of dead insects/Number of released insects)×100"}, "[2]": {"tested_on": "diamondback moths (Plutella xylostella) with second instar larvae", "test": "Insecticidal test against diamondback moth (leaf dip)", "format": "in vivo", "conditions": "foliar, 144 h, read-out: insecticidal rate (rate of dead insects)", "procedure": "Insecticidal Test Against Diamondback Moth\nas §1, with “diamondback moths (Plutella xylostella)” for “Common cutworms (Spodoptera litura)”, “in” for “by”, “same manner as in Test Example 1.” for “following calculation formula.”, “districts.” for “districts. Rate of dead insects (%)=(Number of dead insects/Number of released insects)×100”"}, "[3]": {"conditions": "chemical solution 100 ppm, leaf dip, 25° C., dead insects counted after 6 days"}}, "note": "Like-named read-outs stand apart in the source and are kept apart here."}
{"molecule": "CC1=NC(c2ccc(Cl)cc2)=CC(c2ccc(NC(=O)c3cccc(I)c3C(=O)NC(C)C)c(C)c2)(C(F)(F)F)N1", "note": "(stereo not drawn) [8-01, N^1-[4-[6-(4-chlorophenyl)-2-methyl-4-trifluoromethyl-3,4-dihydropyrimidin-4-yl]-2-methylphenyl]-3-iodo-N^2-isopropylphthalic diamide]", "values": [{"measurement": "pest or weed control at 100 ppm", "setting": "[1]; [3]", "value": "≥ 80", "unit": "%"}, {"measurement": "pest or weed control at 100 ppm", "setting": "[2]; [3]", "value": "≥ 80", "unit": "%"}]}
{"molecule": "Cc1cc(C2(C(F)(F)F)ON=C(c3ccc(F)cc3)O2)ccc1NC(=O)c1cccc(I)c1C(=O)NC(C)C", "note": "(stereo not drawn) [4-05, N^1-[4-[3-(4-fluorophenyl)-5-trifluoromethyl-1,4,2-dioxazolin-5-yl]-2-methylphenyl]-3-iodo-N 2-isopropylphthalic diamide]", "values": [{"measurement": "pest or weed control at 100 ppm", "setting": "[1]; [3]", "value": "≥ 80", "unit": "%"}, {"measurement": "pest or weed control at 100 ppm", "setting": "[2]; [3]", "value": "≥ 80", "unit": "%"}]}
{"molecule": "Cc1cc(C2(C(F)(F)F)CC(c3ccc([S+](C)[O-])cc3)=NO2)ccc1NC(=O)c1cccc(I)c1C(=O)NC(C)C", "note": "(stereo not drawn) [2-037, 3-Iodo-N 2 isopropyl-N^1-[4-[3-(4-methylsulfinylphenyl)-5-trifluoromethyl-4,5-dihydroisoxazol-5-yl]-2-methylphenyl]phthalic diamide]", "values": [{"measurement": "pest or weed control at 100 ppm", "setting": "[1]; [3]", "value": "≥ 80", "unit": "%"}, {"measurement": "pest or weed control at 100 ppm", "setting": "[2]; [3]", "value": "≥ 80", "unit": "%"}]}
{"molecule": "Cc1cc(C2(C(F)(F)F)CC(c3ccc(C(N)=O)cc3)=NO2)ccc1NC(=O)c1cccc(I)c1C(=O)NC(C)C", "note": "(stereo not drawn) [2-048, N^1-[4-[3-(4-carbamoylphenyl)-5-trifluoromethyl-4,5-dihydroisoxazol-5-yl]-2-methylphenyl]-3-iodo-N^2-isopropylphthalic diamide]", "values": [{"measurement": "pest or weed control at 100 ppm", "setting": "[1]; [3]", "value": "≥ 80", "unit": "%"}, {"measurement": "pest or weed control at 100 ppm", "setting": "[2]; [3]", "value": "≥ 80", "unit": "%"}]}
{"molecule": "Cc1cc(C2(C(F)(F)F)CC(c3ccc(F)cc3)=NO2)ccc1NC(=O)c1cccc(N)c1C(=O)NC(C)C", "note": "(stereo not drawn) [2-170, 3-Amino-N^1-[4-[3-(4-fluorophenyl)-5-trifluoromethyl-4,5-dihydroisoxazol-5-yl]-2-methylphenyl]-N^2-isopropylphthalic diamide]", "values": [{"measurement": "pest or weed control at 100 ppm", "setting": "[1]; [3]", "value": "≥ 80", "unit": "%"}, {"measurement": "pest or weed control at 100 ppm", "setting": "[2]; [3]", "value": "≥ 80", "unit": "%"}]}
{"molecule": "CSCC(C)NC(=O)c1c(I)cccc1C(=O)Nc1ccc(C2(c3ccc(Cl)cc3)CC2(Cl)Cl)cc1C", "note": "(stereo not drawn) [9-041, N^1-[4-(2,2-dichloro-1-(4-chlorophenyl)cyclopropyl)-2-methylphenyl]-3-iodo-N^2-(1-methyl-2-methylthioethyl)phthalic diamide]", "values": [{"measurement": "pest or weed control at 100 ppm", "setting": "[1]", "value": "≥ 80", "unit": "%"}, {"measurement": "pest or weed control at 100 ppm", "setting": "[2]", "value": "≥ 80", "unit": "%"}]}
{"molecule": "CC1=NOC(c2ccc(Cl)cc2)(c2ccc(NC(=O)c3cccc(I)c3C(=O)NC(C)C)c(C)c2)C1", "note": "(stereo not drawn) [3-006, N^1-[4-[5-(4-chlorophenyl)-3-methyl-4,5-dihydroisoxazol-5-yl]-2-methylphenyl]-3-iodo-N^2-isopropylphthalic diamide]", "values": [{"measurement": "pest or weed control at 100 ppm", "setting": "[1]; [3]", "value": "≥ 80", "unit": "%"}, {"measurement": "pest or weed control at 100 ppm", "setting": "[2]; [3]", "value": "≥ 80", "unit": "%"}]}
{"molecule": "CC1=NOC(c2ccc(NC(=O)c3cccc(I)c3C(=O)NC(C)C)c(C)c2)(C(F)(F)F)C1", "note": "(stereo not drawn) [1-006, 3-Iodo-N^2-isopropyl-N^1-[2-methyl-4-(3-methyl-5-trifluoromethyl-4,5-dihydroisoxazol-5-yl)phenyl]phthalic diamide]", "values": [{"measurement": "pest or weed control at 100 ppm", "setting": "[1]; [3]", "value": "≥ 80", "unit": "%"}, {"measurement": "pest or weed control at 100 ppm", "setting": "[2]; [3]", "value": "≥ 80", "unit": "%"}]}
{"molecule": "Cc1cc(C2(C(F)(F)C(F)(F)C(F)(F)F)CC(c3ccc(Cl)cc3)=NO2)ccc1NC(=O)c1cccc(I)c1C(=O)NC(C)C", "note": "(stereo not drawn) [2-059, N^1-[4-[3-(4-chlorophenyl)-5-heptafluoropropyl-4,5-dihydroisoxazol-5-yl]-2-methylphenyl]-3-iodo-N^2-isopropylphthalic diamide]", "values": [{"measurement": "pest or weed control at 100 ppm", "setting": "[1]", "value": "≥ 80", "unit": "%"}, {"measurement": "pest or weed control at 100 ppm", "setting": "[2]", "value": "≥ 80", "unit": "%"}]}
{"molecule": "Cc1cc(C2(C(F)(F)F)CC(c3ccc(F)cc3)=NO2)ccc1NC(=O)c1cccc([N+](=O)[O-])c1C(=O)NC(C)C", "note": "(stereo not drawn) [2-167, N^1-[4-[3-(4-fluorophenyl)-5-trifluoromethyl-4,5-dihydroisoxazol-5-yl]-2-methylphenyl]-3-nitro-N^2-isopropylphthalic diamide]", "values": [{"measurement": "pest or weed control at 100 ppm", "setting": "[1]; [3]", "value": "≥ 80", "unit": "%"}, {"measurement": "pest or weed control at 100 ppm", "setting": "[2]; [3]", "value": "≥ 80", "unit": "%"}]}
{"molecule": "Cc1cc(C2(C(F)(F)F)OCC(c3ccc(Cl)cc3)O2)ccc1NC(=O)c1cccc(I)c1C(=O)NC(C)C", "note": "(stereo not drawn) [7-03, N^1-[4-[4-(4-chlorophenyl)-2-trifluoromethyl-1,3-dioxolan-2-yl]-2-methylphenyl]-3-iodo-N^2-isopropylphthalic diamide]", "values": [{"measurement": "pest or weed control at 100 ppm", "setting": "[1]; [3]", "value": "≥ 80", "unit": "%"}, {"measurement": "pest or weed control at 100 ppm", "setting": "[2]; [3]", "value": "≥ 80", "unit": "%"}]}
{"molecule": "Cc1cc(C2(C(F)(F)F)CC2(C#N)C#N)ccc1NC(=O)c1cccc(I)c1C(=O)NC(C)C", "note": "(stereo not drawn) [9-001, N^1-[4-(2,2-dicyano-1-trifluoromethylcyclopropyl)-2-methylphenyl]-3-iodo-N^2-isopropylphthalic diamide]", "values": [{"measurement": "pest or weed control at 100 ppm", "setting": "[1]; [3]", "value": "≥ 80", "unit": "%"}, {"measurement": "pest or weed control at 100 ppm", "setting": "[2]; [3]", "value": "≥ 80", "unit": "%"}]}
{"molecule": "CSCC(C)NC(=O)c1c(I)cccc1C(=O)Nc1ccc(C2(C(F)(F)F)CC(c3ccc(Cl)cc3)=NO2)cc1C", "note": "(stereo not drawn) [2-095, N^1-[4-[3-(4-chlorophenyl)-5-trifluoromethyl-4,5-dihydroisoxazol-5-yl]-2-methylphenyl]-3-iodo-N^2-(1-methyl-2-methylthioethyl)phthalic diamide]", "values": [{"measurement": "pest or weed control at 100 ppm", "setting": "[1]; [3]", "value": "≥ 80", "unit": "%"}, {"measurement": "pest or weed control at 100 ppm", "setting": "[2]; [3]", "value": "≥ 80", "unit": "%"}]}
{"molecule": "Cc1cc(C2(C(F)(F)F)CC(n3cncn3)=NO2)ccc1NC(=O)c1cccc(I)c1C(=O)NC(C)C", "note": "(stereo not drawn) [1-032, 3-Iodo-N^2-isopropyl-N^1-[4-[3-(1,2,4-triazol-1-yl)-5-trifluoromethyl-4,5-dihydroisoxazol-5-yl]-2-methylphenyl]phthalic diamide]", "values": [{"measurement": "pest or weed control at 100 ppm", "setting": "[1]; [3]", "value": "≥ 80", "unit": "%"}, {"measurement": "pest or weed control at 100 ppm", "setting": "[2]; [3]", "value": "≥ 80", "unit": "%"}]}
{"molecule": "Cc1cc(C2(C(F)(F)F)CC(c3ccc(Cl)cc3)=NN2C)ccc1NC(=O)c1cccc(I)c1C(=O)NC(C)C", "note": "(stereo not drawn) [6-04, N^1-[4-[3-(4-chlorophenyl)-1-methyl-5-trifluoromethyl-4,5-dihydropyrazol-5-yl]-2-methylphenyl]-3-iodo-N^2-isopropylphthalic diamide]", "values": [{"measurement": "pest or weed control at 100 ppm", "setting": "[1]; [3]", "value": "≥ 80", "unit": "%"}, {"measurement": "pest or weed control at 100 ppm", "setting": "[2]; [3]", "value": "≥ 80", "unit": "%"}]}
{"molecule": "Cc1cc(C2(C(F)(F)F)CC(c3ccc(F)cc3)=NO2)ccc1NC(=O)c1cccc(I)c1C(=O)NC(C)C", "note": "(stereo not drawn) [2-016, N^1-[4-[3-(4-fluorophenyl)-5-trifluoromethyl-4,5-dihydroisoxazol-5-yl]-2-methylphenyl]-3-iodo-N^2-isopropylphthalic diamide]", "values": [{"measurement": "pest or weed control at 100 ppm", "setting": "[1]; [3]", "value": "≥ 80", "unit": "%"}, {"measurement": "pest or weed control at 100 ppm", "setting": "[2]; [3]", "value": "≥ 80", "unit": "%"}]}
{"molecule": "CSCC(C)NC(=O)c1c(I)cccc1C(=O)Nc1ccc(C2(c3ccc(Cl)cc3)CC2(F)F)cc1C", "note": "(stereo not drawn) [9-026, N^1-[4-(2,2-difluoro-1-(4-chlorophenyl)cyclopropyl)-2-methylphenyl]-3-iodo-N^2-(1-methyl-2-methylthioethyl)phthalic diamide]", "values": [{"measurement": "pest or weed control at 100 ppm", "setting": "[1]; [3]", "value": "≥ 80", "unit": "%"}, {"measurement": "pest or weed control at 100 ppm", "setting": "[2]; [3]", "value": "≥ 80", "unit": "%"}]}
{"molecule": "Cc1cc(C2(C(F)(F)F)CC(c3ccc(C#N)cc3)=NO2)ccc1NC(=O)c1cccc(I)c1C(=O)NC(C)C", "note": "(stereo not drawn) [2-046, N^1-[4-[3-(4-cyanophenyl)-5-trifluoromethyl-4,5-dihydroisoxazol-5-yl]-2-methylphenyl]-3-iodo-N^2-isopropylphthalic diamide]", "values": [{"measurement": "pest or weed control at 100 ppm", "setting": "[1]; [3]", "value": "≥ 80", "unit": "%"}, {"measurement": "pest or weed control at 100 ppm", "setting": "[2]; [3]", "value": "≥ 80", "unit": "%"}]}
